The values below come from patent US10246414B2, “Allosteric modulators of CB1 cannabinoid receptors” (Northeastern University, priority 2012, dated 2019).

As usually defined, the Emax is the greatest response seen or fitted, relative to the assay's reference. For orientation: EC50 means the midpoint of the concentration-response curve. A low value points to an effect from little substance.

In the first test the target is CB1 cannabinoid receptors (CNR1 cAMP Hunter cell line) (Homo sapiens, UniProt P21554). In words: cAMP Hunter (DiscoveRx HitHunter cAMP XS+) allosteric modulation assay with CP55,940 at EC20.
CB1 cannabinoid receptors (CNR1 cAMP Hunter cell line), sequence (P21554 whole entry): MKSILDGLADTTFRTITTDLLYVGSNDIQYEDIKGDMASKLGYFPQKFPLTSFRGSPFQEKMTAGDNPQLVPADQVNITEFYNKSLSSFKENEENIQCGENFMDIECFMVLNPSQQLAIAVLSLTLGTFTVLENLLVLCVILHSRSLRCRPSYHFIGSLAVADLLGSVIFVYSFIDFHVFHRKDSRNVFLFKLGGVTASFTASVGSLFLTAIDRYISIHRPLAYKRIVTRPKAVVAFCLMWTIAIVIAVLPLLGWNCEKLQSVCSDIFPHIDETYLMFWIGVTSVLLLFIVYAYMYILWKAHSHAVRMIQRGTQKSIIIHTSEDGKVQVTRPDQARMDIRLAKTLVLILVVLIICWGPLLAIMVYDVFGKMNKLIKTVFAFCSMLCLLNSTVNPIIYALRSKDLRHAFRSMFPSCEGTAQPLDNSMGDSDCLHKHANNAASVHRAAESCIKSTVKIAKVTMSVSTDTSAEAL
Settings: not given
Format: cell-based. The protocol:
Once it was established that the cells were healthy and growing normally, cells were passaged from flasks using cell dissociation reagent buffer and seeded into white walled clear bottom 384-well microplates for compound profiling. For profiling, cells were seeded at a density of 10000 cells per well in a total volume of 20 μL and were allowed to adhere and recover overnight prior to compound addition. Cells were treated the following day using the protocols shown below. cAMP modulation was determined using the DiscoveRx HitHunter cAMP XS+ assay.
Media was aspirated from cells and replaced with 10 μL 1:1 HBSS/Hepes: cAMP XS+Ab reagent. Agonist (CP55,940) dose curves were performed to determine the EC20 value for the following testing with compounds. 5 μL of 4× agonist was added to each well with an equal concentration of vehicle present. EC20 agonist concentration was determined directly from agonist dose curve.
For allosteric determination, cells were preincubated with compound followed by agonist challenge at the EC20 concentration. 5 μL of 4× compound was added to cells and incubated at 37° C. for 30 minutes. 5 μL of 4× EC20 agonist was added to cells and incubated at 37° C. for 30 minutes.
Signal Detection: After appropriate compound incubation, assay signal was generated through incubation with 20 μL cAMP XS+ED/CL lysis cocktail for one hour followed by incubation with 20 μL cAMP XS+EA reagent for three hours at room temperature. Microplates were read following signal generation with a PerkinElmer Envision™ instrument for chemiluminescent signal detection.
Data Analysis: Dose curves were plotted using GraphPad Prism or Activity Base. The percentage activity is calculated using the following formula: % Activity=100%×(1−(mean RLU of test sample−mean RLU of MAX control)/(mean RLU of vehicle control [EC20 for PAM]−mean RLU of MAXcontrol).
Agonist (CP55,940) dose curves were performed for the CNR1 PathHunter and cAMP Hunter cell lines. […] The cAMP assay was performed in the presence of 20 μM forskolin (EC80).
The compound `O=[N+]([O-])CC(c1ccccc1)c1c(-c2ccccc2)[nH]c2ccccc12` (racemic) [Compound 1, 3-(2-Nitro-1-phenylethyl)-2-phenyl-1H-indole, reference compound] displayed an Emax of 80%.
In the case of `O=[N+]([O-])CC(c1ccccn1)c1c(-c2ccccc2)[nH]c2ccccc12` (racemic) [Compound 10, 3-(2-Nitro-1-(pyridin-2-yl)ethyl)-2-phenyl-1H-indole], the response was half-maximal at 456 nM (EC50) and the Emax is 96%.
Turning to `O=[N+]([O-])C[C@H](c1ccccc1)c1c(-c2ccccc2)[nH]c2ccccc12` (single isomer, unassigned) [Compound 2], the maximal response (Emax) worked out at 75%.
With `O=[N+]([O-])C[C@@H](c1ccccc1)c1c(-c2ccccc2)[nH]c2ccccc12` (single isomer, unassigned) [Compound 3], the Emax amounted to 96%.
Consider `O=[N+]([O-])C[C@H](c1ccccn1)c1c(-c2ccccc2)[nH]c2ccccc12` (single isomer, unassigned) [Compound 11], for which the response was half-maximal at 300 nM (EC50) and the Emax stood at 120%.
`O=[N+]([O-])C[C@@H](c1ccccn1)c1c(-c2ccccc2)[nH]c2ccccc12` (single isomer, unassigned) [Compound 12] displayed a concentration giving a half-maximal response (EC50) of 417 nM and an Emax of 119%.
Turning to `O=[N+]([O-])CC(c1ccc(N2CCCCC2)cc1)c1c(-c2ccccc2)[nH]c2ccccc12` (stereo not shown) [Compound 4, 3-(2-Nitro-1-(4-(piperidin-1-yl)phenyl)ethyl)-2-phenyl-1H-indole], the 50% effective concentration (EC50) was determined as 590 nM and the Emax came out at 101%.
As to `O=[N+]([O-])CC(c1ccc(-c2ccccc2)cc1)c1c(-c2ccccc2)[nH]c2ccccc12` (stereo not shown) [Compound 5, 3-(1-([1,1′-Biphenyl]-4-yl)-2-nitroethyl)-2-phenyl-1H-indole], the EC50 is over 10000 nM and the Emax is 0%.
Regarding `O=[N+]([O-])CC(c1ccccc1)c1c(-c2ccc3ccccc3c2)[nH]c2ccccc12` (stereo not shown) [Compound 6], the EC50 worked out at 744 nM and the Emax is 65%.
For `O=[N+]([O-])CC(c1ccccc1)c1c(-c2ccccc2)[nH]c2ccc(Cl)cc12` (stereo not shown) [Compound 7, 5-Chloro-3-(2-nitro-1-phenylethyl)-2-phenyl-1H-indole], the response was half-maximal at 1010 nM (EC50) and the Emax amounted to 44%.
In the case of `O=[N+]([O-])c1cccc(-c2c(-c3ccccc3)[nH]c3ccccc23)c1` [Compound 8, 3-(3-Nitrophenyl)-2-phenyl-1H-indole], the EC50 is over 10000 nM and the Emax was 54%.
The compound `O=[N+]([O-])CC(c1ccccc1)c1cn(-c2ccccc2)c2ccccc12` (stereo not shown) [Compound 9, 3-(2-Nitro-1-phenylethyl)-1-phenyl-1H-indole] yielded an EC50 of 920 nM and an Emax of 105%.
In turn, `O=[N+]([O-])CC(c1ccccc1)c1c(-c2ccc(F)cc2)[nH]c2ccccc12` (stereo not shown) [Compound 13, 2-(4-Fluorophenyl)-3-(2-nitro-1-phenylethyl)-1H-indole] returned an EC50 of 327 nM and an Emax of 110%.
Take `O=[N+]([O-])CC(c1ccccc1)c1c(-c2ccc(Cl)cc2)[nH]c2ccccc12` (stereo not shown) [Compound 14, 2-(4-Chlorophenyl)-3-(2-nitro-1-phenylethyl)-1H-indole]: the EC50 is 650 nM and the Emax was 115%.
Turning to `O=[N+]([O-])CC(c1ccccc1)c1c(-c2ccc(F)c(Cl)c2)[nH]c2ccccc12` (stereo not shown) [Compound 15, 2-(3-Chloro-4-fluorophenyl)-3-(2-nitro-1-phenylethyl)-1H-indole], it took 411 nM to reach a half-maximal effect (EC50) and the Emax came to 110%.

Another test concerns extracellular dopamine levels in nucleus accumbens. In words: In vivo microdialysis, dopamine in shell of nucleus accumbens. The arrangement: species or system Sprague-Dawley male rats. The following applies: 30 mg/kg IP, rat nucleus accumbens shell, dialysate samples every 20 minutes; ANOVA p=0.325, NS. As for the experimental part:
Concentric microdialysis probes with 2 mm-long dialysis membranes were prepared as described previously (Pontieri, Tanda & DiChiara 1995). Sprague-Dawley male rats were anesthetized with Equithesin and probes were surgically implanted in the shell of nucleus accumbens (coordinates with respect to bregma: anterior, +2.2; lateral, −1.0; vertical −8.0 from dura). Ringer's solution (147 mM NaCl, 2.2 mM CaCl2, 4.0 mM KCl) was pumped through the dialysis probe at a constant flow rate of 1 uL/minute. […] Collection of dialysate samples started after 20 minutes, with samples collected every 20 minutes and immediately analyzed by a high-performance liquid chromatography system coupled to electrochemical detection to quantify dopamine.
Results are presented as group means (±SEM). Microdialysis data were analyzed using two-way ANOVA.
As to `O=[N+]([O-])CC(c1ccccc1)c1c(-c2ccccc2)[nH]c2ccccc12` (racemic) [Compound 1, 3-(2-Nitro-1-phenylethyl)-2-phenyl-1H-indole, reference compound], the “change in extracellular dopamine levels after injection” value is “no significant change”.
